Data set [1] deals with enterovirus EV71 (BrCr strain). Description: Activity screening for anti-enterovirus EV71: inhibition of cytopathic effect in Vero cells. The format is cell-based. The note with it: 100TCID50, Vero cells, CPE read when virus control reaches 4+, read-out: IC50 (half inhibitory concentration for enterovirus EV71). As to the method: Test item: Activity screening of the compounds for anti-enterovirus EV71
Test principle: Vero cells are used as viral host. The inhibition of the compound of the invention on the degree of cytopathic effect of Vero cells caused by enterovirus virus EV71 is determined.
1. Virus strain: enterovirus EV71 (BrCr, American Type Culture Collection, ATCC)
(§1) 2. Sample treatment: the compounds of the present invention are dissolved in DMSO or diluent to prepare stock solution which is stored at −20° C. The stock solution is formulated to suitable incipient concentration with culture solution immediately before use, and then 3-fold diluted with the culture solution, 8 degrees of dilution each.
3. Positive control drug: Pirodavir (LGM Pharma), which is a broad-spectrum anti-viral inhibitor.
(§2) 4. Test Method: Vero cells are seeded into a 96-well culture plate, at 5% CO2, and cultured at 37° C. for 16 hours. The Vero cells are added with different dilutions of drugs, and the degree of cytopathic effect (CPE) in each group is observed. The half toxic concentration (TC50) of each sample for Vero cells is calculated. Vero cells are added with 100TCID50 enterovirus EV71 respectively, and the virus solution is discarded after adsorption at 37° C. for 1 hour, and then drugs with various degrees of dilution are added respectively. Virus control and cell control are set and incubated at 37° C. The degree of cytopathic effect (CPE) in each group is observed when the degree of cytopathic effect (CPE) of virus control group reaches 4+. The half inhibitory concentration (IC50) of each sample for enterovirus EV71 are calculated. Selectivity Index (SI) is calculated according to the following equation: SI=TC50/IC50.
In general terms: Protection from cytopathic effect is a common read-out in antiviral testing.

A further data set has as its system Vero cells. As to the kind of experiment: Cytotoxicity of the compounds for Vero cells (CPE observation, TC50). It counts as cell-based. To be noted: no virus. The procedure:
as §1, §2

This note sets out measurements from US9630957B2, “2,3-butanediamide epoxide compound and preparation method and use thereof” (Institute of Pharmacology and Toxicology Academy of …, priority 2014, dated 2017).

Consider `COc1ccc(NC(=O)[C@H]2O[C@@H]2C(=O)N(Cc2ccc(F)cc2)c2ccc(C(=O)Nc3nc4ccccc4s3)cc2)cc1` [Compound 20, (2S,3S)—N^2-(4-(benzo[d]thiazol-2-ylcarbamoyl)phenyl)-N^3-(4-methoxyphenyl)-N^2-(4-fluorobenzyl)-2,3-epoxybutanediamide], for which the melting point (as a rule, the temperature, or range, at which the solid turns liquid) lay within 200.1 to 201.2 °C. Further, the IC50 in data set [1] is above 2.47 µg/mL. Also, the “TC50 (half toxic concentration for Vero cells)” value (“TC50” below) in the data set on Vero cells came out at 13.74 µg/mL.

`COc1cccc(NC(=O)[C@H]2O[C@@H]2C(=O)N(Cc2ccc(F)cc2)c2ccc(C(=O)Nc3nc4ccccc4s3)cc2)c1` [Compound 21, (2S,3S)—N^2-(4-(benzo[d]thiazol-2-ylcarbamoyl)phenyl)-N^3-(3-methoxyphenyl)-N^2-(4-fluorobenzyl)-2,3-epoxybutanediamide] displayed a melting point of 223.1 to 224.1 °C. The IC50 in data set [1] was above 0.27 µg/mL. Moreover, the “TC50” value in the data set with Vero cells was 1.19 µg/mL.

In turn, `O=C(Nc1nc2ccccc2s1)c1ccc(N(Cc2ccc(F)cc2)C(=O)[C@H]2O[C@@H]2C(=O)Nc2ccc(F)c(F)c2)cc1` [Compound 22, (2S,3S)—N^2-(4-(benzo[d]thiazol-2-ylcarbamoyl)phenyl)-N^3-(3,4-difluorophenyl)-N^2-(4-fluorobenzyl)-2,3-epoxybutanediamide] registered a melting point of 219.2 to 219.7 °C. Also, the IC50 in data set [1] was above 0.27 µg/mL. Besides, in the data set on Vero cells, the “TC50” value worked out at 1.19 µg/mL.

In turn, `O=C(Nc1nc2ccccc2s1)c1ccc(N(Cc2ccc(F)cc2)C(=O)[C@H]2O[C@@H]2C(=O)Nc2cccc(Cl)c2)cc1` [Compound 23, (2S,3S)—N^2-(4-(benzo[d]thiazol-2-ylcarbamoyl)phenyl)-N^3-(3-chlorophenyl)-N^2-(4-fluorobenzyl)-2,3-epoxybutanediamide] registered a melting point of 209.8 to 210.3 °C. Besides, in data set [1], the IC50 was above 0.82 µg/mL. Further, the “TC50” value in the data set on Vero cells stood at 1.43 µg/mL.

As to `O=C(Nc1nc2ccccc2s1)c1ccc(N(Cc2ccc(F)cc2)C(=O)[C@H]2O[C@@H]2C(=O)Nc2ccc([N+](=O)[O-])cc2)cc1` [Compound 24, (2S,3S)—N^2-(4-(benzo[d]thiazol-2-ylcarbamoyl)phenyl)-N^3-(4-nitrophenyl)-N^2-(4-fluorobenzyl)-2,3-epoxybutanediamide], the melting point fell in the range of 203.5 to 204.2 °C. The IC50 in data set [1] is above 0.82 µg/mL. The “TC50” value in the data set on Vero cells was found to be 1.43 µg/mL.

`O=C(Nc1nc2ccccc2s1)c1ccc(N(Cc2ccc(F)cc2)C(=O)[C@H]2O[C@@H]2C(=O)Nc2cccc(Cl)c2Cl)cc1` [Compound 25, (2S,3S)—N^2-(4-(benzo[d]thiazol-2-ylcarbamoyl)phenyl)-N^3-(2,3-dichlorophenyl)-N^2-(4-fluorobenzyl)-2,3-epoxybutanediamide] had a melting point of 210.2 to 211.1 °C. Moreover, in data set [1], the IC50 was above 0.27 µg/mL. In the data set with Vero cells, the “TC50” value is 0.82 µg/mL.

For the molecule `O=C(Nc1nc2ccccc2s1)c1ccc(N(Cc2ccc(F)cc2)C(=O)[C@H]2O[C@@H]2C(=O)Nc2ccc(Cl)cc2Cl)cc1` [Compound 26, (2S,3S)—N^2-(4-(benzo[d]thiazol-2-ylcarbamoyl)phenyl)-N^3-(2,4-dichlorophenyl)-N^2-(4-fluorobenzyl)-2,3-epoxybutanediamide], the melting point fell in the range of 206.7 to 207.5 °C. For the same molecule, the IC50 in data set [1] is above 0.82 µg/mL. Moreover, the “TC50” value with Vero cells worked out at 1.43 µg/mL.

For the molecule `O=C(Nc1nc2ccccc2s1)c1ccc(N(Cc2ccc(F)cc2)C(=O)[C@H]2O[C@@H]2C(=O)Nc2ccccc2Br)cc1` [Compound 27, (2S,3S)—N^2-(4-(benzo[d]thiazol-2-ylcarbamoyl)phenyl)-N^3-(2-bromophenyl)-N^2-(4-fluorobenzyl)-2,3-epoxybutanediamide], the melting point was in the range of 179.2 to 180.1 °C. Also, the IC50 in data set [1] is above 0.27 µg/mL. Besides, in the data set on Vero cells, the “TC50” value turned out to be 0.82 µg/mL.
